Values quoted from earlier work in PubChem BioAssay AID1259409 (Chemical Carcinogenesis Research Information System (CCRIS), 2018).

System: rodent chemically induced tumor inhibition, incidence and multiplicity
Assay: CCRIS tumor inhibitor studies
Details: Route [Inhibitor]: ORAL, Promoter: NONE USED; for outcome: Target Tissue: Type of Lesion: GALLBLADDER: CARCINOMA IN SITU

O=[Se](O)O
tumour outcome (control, treated, inhibition, significance) (Carcinogen: 1,2-DIMETHYLHYDRAZINE, 540-73-8, Dose [Inhibitor]: 0, 10 MG/L IN DRINKING WATER FOR DURATION OF STUDY BEGINNING 7 D PRIOR TO CARCINOGEN TREATMENT (STUDY DURATION: 8 MO), Species: RAT, Strain/Sex: BD6/MALE, Target Tissue: Type of Lesion: INTESTINE: TUMOR, Dose [Carcinogen]: 20 MG/KG BW 1/WK FOR 20 WK): 100%, 100%, 0%, not significant
tumour outcome (control, treated, inhibition, significance) (Carcinogen: 1,2-DIMETHYLHYDRAZINE, 540-73-8, Dose [Inhibitor]: 4 PPM IN DRINKING WATER DAILY FOR 10-20 WK STARTING AFTER COMPLETION OF CARCINOGEN TREATMENT AND CONTINUING FOR DURATION, Species: RAT, Strain/Sex: SPRAGUE-DAWLEY/MALE, Target Tissue: Type of Lesion: COLON: ADENOCARCINOMA, VILLOUS ADENOMA, Dose [Carcinogen]: 20 MG/KG BW 1/WK FOR 20 WK): 29/32 (91%), 63/69 (91%), 0%, not calculated
tumour outcome (control, treated, inhibition, significance) (Carcinogen: 1,2-DIMETHYLHYDRAZINE, 540-73-8, Dose [Inhibitor]: 4 PPM IN DRINKING WATER DAILY FOR 20 WK STARTING SIMULTANEOUSLY WITH CARCINOGEN TREATMENT AND CONTINUING THROUGH END OF, Species: RAT, Strain/Sex: SPRAGUE-DAWLEY/MALE, Target Tissue: Type of Lesion: COLON: ADENOCARCINOMA, Dose [Carcinogen]: 20 MG/KG BW 1/WK FOR 20 WK): 13/15 (87%), 6/15 (40%), 54%, p 0.025
tumour outcome (control, treated, inhibition, significance) (Carcinogen: 1,2-DIMETHYLHYDRAZINE, 540-73-8, Dose [Inhibitor]: 4 PPM IN DRINKING WATER DAILY STARTING 2 WK PRIOR TO START OF CARCINOGEN TREATMENT AND CONTINUING FOR DURATION OF STUDY, Species: RAT, Strain/Sex: SPRAGUE-DAWLEY/MALE, Target Tissue: Type of Lesion: COLON: ADENOCARCINOMA, Dose [Carcinogen]: 20 MG/KG BW IN BACTERIOSTATIC SALINE 1/WK FOR 20 WK): 9/14 (64%), 4/13 (31%), 52%, not calculated
tumour outcome (control, treated, inhibition, significance) (Carcinogen: 2-(ACETYLAMINO)FLUORENE, 6292-55-3, Dose [Inhibitor]: 4 PPM IN DRINKING WATER DAILY STARTING 1 WK PRIOR TO CARCINOGEN TREATMENT AND CONTINUING FOR DURATION OF STUDY (STUDY DU, Species: RAT, Strain/Sex: SPRAGUE-DAWLEY/MALE, Target Tissue: Type of Lesion: LIVER: CARCINOMA, Dose [Carcinogen]: 0.03% IN DIET DAILY FOR 14 WK): 9/13 (69%), 4/14 (29%), 58%, not calculated
tumour outcome (control, treated, inhibition, significance) (Carcinogen: 3'-METHYL-4-DIMETHYLAMINOAZOBENZENE, 55-80-1, Dose [Inhibitor]: 6 PPM IN DRINKING WATER DAILY STARTING 1 WK PRIOR TO START OF CARCINOGEN TREATMENT AND CONTINUING FOR DURATION OF STUDY, Species: RAT, Strain/Sex: SPRAGUE-DAWLEY/MALE, Target Tissue: Type of Lesion: LIVER: ADENOCARCINOMA, Dose [Carcinogen]: 0.05% IN DIET DAILY FOR 8 WK): 11/12 (92%), 7/15 (46%), 50%, p<0.01
outcome (Carcinogen: 3-METHYLCHOLANTHRENE, 56-49-5, Dose [Inhibitor]: 0, 0.5 PPM IN DRINKING WATER FOR 24 WK BEGINNING 4 WK PRIOR TO CARCINOGEN TREATMENT (STUDY DURATION: 24 WK), Species: HAMSTER, Strain/Sex: SYRIAN/FEMALE, Dose [Carcinogen]: 3 MG IN BEESWAX PELLET INSERTED INTO GALLBLADDER AT WK 4 OF STUDY): 0/24 (0%), 3/20 (15%), -100%, not significant
tumour outcome (control, treated, inhibition, significance) (Carcinogen: 3-METHYLCHOLANTHRENE, 56-49-5, Dose [Inhibitor]: 0, 0.5 PPM IN DRINKING WATER FOR 24 WK BEGINNING 4 WK PRIOR TO CARCINOGEN TREATMENT (STUDY DURATION: 24 WK), Species: HAMSTER, Strain/Sex: SYRIAN/FEMALE, Target Tissue: Type of Lesion: GALLBLADDER: INVASIVE ADENOCARCINOMA, Dose [Carcinogen]: 3 MG IN BEESWAX PELLET INSERTED INTO GALLBLADDER AT WK 4 OF STUDY): 21/24 (88%), 11/20 (55%), 38%, p<0.05
outcome (Carcinogen: 3-METHYLCHOLANTHRENE, 56-49-5, Dose [Inhibitor]: 0, 2 PPM IN DRINKING WATER FOR 24 WK BEGINNING 4 WK PRIOR TO CARCINOGEN TREATMENT (STUDY DURATION: 24 WK), Species: HAMSTER, Strain/Sex: SYRIAN/FEMALE, Dose [Carcinogen]: 3 MG IN BEESWAX PELLET INSERTED INTO GALLBLADDER AT WK 4 OF STUDY): 0/24 (0%), 7/21 (33%), -100%, p<0.05
tumour outcome (control, treated, inhibition, significance) (Carcinogen: 3-METHYLCHOLANTHRENE, 56-49-5, Dose [Inhibitor]: 0, 2 PPM IN DRINKING WATER FOR 24 WK BEGINNING 4 WK PRIOR TO CARCINOGEN TREATMENT (STUDY DURATION: 24 WK), Species: HAMSTER, Strain/Sex: SYRIAN/FEMALE, Target Tissue: Type of Lesion: GALLBLADDER: INVASIVE ADENOCARCINOMA, Dose [Carcinogen]: 3 MG IN BEESWAX PELLET INSERTED INTO GALLBLADDER AT WK 4 OF STUDY): 21/24 (88%), 10/21 (48%), 45%, p<0.05
tumour outcome (control, treated, inhibition, significance) (Carcinogen: 3-METHYLCHOLANTHRENE, 56-49-5, Dose [Inhibitor]: 0, 2 UG/G/BW 2/WK FOR 20 WK (STUDY DURATION: 20 WK), Species: MOUSE, Strain/Sex: ICRC/MALE, Target Tissue: Type of Lesion: SKIN: PAPILLOMA, Dose [Carcinogen]: 50 UG IN 0.2 ML ACETONE 2/WK): 100%, 100%, 0%, not significant
outcome (Carcinogen: 3-METHYLCHOLANTHRENE, 56-49-5, Dose [Inhibitor]: 0, 4 PPM IN DRINKING WATER FOR 24 WK BEGINNING 4 WK PRIOR TO CARCINOGEN TREATMENT (STUDY DURATION: 24 WK), Species: HAMSTER, Strain/Sex: SYRIAN/FEMALE, Dose [Carcinogen]: 3 MG IN BEESWAX PELLET INSERTED INTO GALLBLADDER AT WK 4 OF STUDY): 0/24 (0%), 5/22 (23%), -100%, p<0.05
tumour outcome (control, treated, inhibition, significance) (Carcinogen: 3-METHYLCHOLANTHRENE, 56-49-5, Dose [Inhibitor]: 0, 4 PPM IN DRINKING WATER FOR 24 WK BEGINNING 4 WK PRIOR TO CARCINOGEN TREATMENT (STUDY DURATION: 24 WK), Species: HAMSTER, Strain/Sex: SYRIAN/FEMALE, Target Tissue: Type of Lesion: GALLBLADDER: INVASIVE ADENOCARCINOMA, Dose [Carcinogen]: 3 MG IN BEESWAX PELLET INSERTED INTO GALLBLADDER AT WK 4 OF STUDY): 21/24 (88%), 12/22 (55%), 38%, p<0.05
tumour outcome (control, treated, inhibition, significance) (Carcinogen: 4-(METHYLNITROSAMINO)-1-(3-PYRIDYL)-1-BUTANONE, 64091-91-4, Dose [Inhibitor]: 0, 0.0022 G/KG DIET (0.00008 UMOL/D) BEGINNING 2 WK PRIOR TO CARCINOGEN DOSE AND CONTINUING FOR DURATION OF STUDY (STUDY, Species: MOUSE, Strain/Sex: STRAIN-A/FEMALE, Target Tissue: Type of Lesion: LUNG: ADENOMA, Dose [Carcinogen]: 9.2, 9.1 MG/MOUSE IN DRINKING WATER DURING 7 WK): 28/28 (100%), 24/25 (96%), 4%, not significant
tumour outcome (control, treated, inhibition, significance) (Carcinogen: 4-(METHYLNITROSAMINO)-1-(3-PYRIDYL)-1-BUTANONE, 64091-91-4, Dose [Inhibitor]: 0, 5 PPM IN DIET BEGINNING 1 WK PRIOR TO CARCINOGEN TREATMENT AND CONTINUING FOR 16 WK POST CARCINOGEN TREATMENT (STUDY, Species: MOUSE, Strain/Sex: STRAIN-A/FEMALE, Target Tissue: Type of Lesion: LUNG: ADENOMA, Dose [Carcinogen]: 10 UMOL IN 0.1 ML SALINE): 100%, 100%, 0%, not significant
